Assay results from patent US20220041667A1, “TARGETING OF MAKAP-PDE4D3 COMPLEXES IN NEURODEGENERATIVE DISEASE” (The Board of Trustees of the Leland Stanford Junior …, priority 2018, published 2022).

B1: mAKAP-SR-GFP: GFP-tagged fragment encoding the mAKAP spectrin-repeat domains (amino acid residues 586-1286) (protein)
chain: GSDSIKSPVPLLSKNKSQKSSPPAPCHATQNGQVVEAWYGSDEYLALPSHLKQTEVLALKLESLTKLLPQKPRGETIQDIDDWELSEMNSDSEIYPTYHIKKKHTRLGTVSPSSSSDIASSLGESIESGPLSDILSDEDLCLPLSSVKKFTDEKSERPSSSEKNESHSATRSALIQKLMHDIQHQENYEAIWERIEGFVNKLDEFIQWLNEAMETTENWTPPKAETDSLRLYLETHLSFKLNVDSHCALKEAVEEEGHQLLELVVSHKAGLKDTLRMIASQWKELQRQIKRQHSWILRALDTIKAEILATDVSVEDEEGTGSPKAEVQLCHLETQRDAVEQMSLKLYSEQYTSGSKRKEEFANMSKAHAEGSNGLLDFDSEYQELWDWLIDMESLVMDSHDLMMSEEQQQHLYKRYSVEMSIRHLKKSELLSKVEALKKGGLSLPDDILEKVDSINEKWELLGKTLREKIQDTIAGHSGSGPRDLLSPESGSLVRQLEVRIKELKRWLRDTELFIFNSCLRQEKEGTSAEKQLQYFKSLCREIKQRRRGVASILRLCQHLLDDRDTCNLNADHQPMQLIIVNLERRWEAIVMQAVQWQTRLQKKMGKESETLNVIDPGLMDLNGMSEDALEWDETDISNKLISVHEESNDLDQDPEPMLPAVKLEETHHKDSGYEEEAGDCGGSPYTSNITAPSSPHIYQV
modifications: left off: large carriers

How the values were obtained:
hippocampal neurons = test: Neurite extension assay (length of longest neurite) in primary hippocampal neurons; format: cell-based, rat; settings: for effect on neurite extension (pharmacological induction): hippocampal neurons, 40 mM KCl, 10 μM FSK, 100 μM IBMX, 20 μM milrinone or 10 μM rolipram for 2 days
Method: Primary rat hippocampal neurons: Hippocampal cultures were prepared from Sprague Dawley rat embryonic day 18 embryos. Briefly, the rat hippocampal CA1-CA3 region was dissected in PBS medium with 10 mM D-glucose and digested with 0.05% trypsin-EDTA in PBS with 11 mM D-glucose for 30 min at 37° C. The dissociated tissues were centrifuged at 250 g for 2 min and then triturated with fire polished glass pipet in Hank's balanced salt solution (HBSS) with calcium and magnesium in plating medium (10% v/v horse serum in DMEM). Dissociated neurons were plated on nitric acid-treated 25-mm cover glass coated with poly-L-lysine in plating medium. Four hours after plating, the medium was replaced with maintenance medium supplemented with 1% N2, 2% B27 (Invitrogen, Carlsbad, Calif., USA), 5 mM D-glucose, 1 mM sodium pyruvate. Four days later, 4 μM arabinosyl cytosine was added to inhibit glial proliferation and the neurons were either transfected with JPEI or infected with adenovirus.
Live cell imaging was performed 36-72 h after transfection/infection as described below. For neurite extension assays, the cells were cultured for two days in DMEM with 1 μg/ml chicken egg albumin and 1 mM sodium pyruvate. 40 mM KCl, 10 μM FSK, 100 μM IBMX, 20 μM Milrinone, 10 μM Rolipram were included as indicated. Two days later, the neurons were fixed and stained with antibodies. Nuclei were counter stained with DAPI and SlowFade Gold antifade solution (Molecular Probes) was added before coverslip mounting. Images were acquired with IPLab or Slidebook 6 by wide-field microscopy (Leica DMI 6000B or Zeiss Axio Observer 7) and processed with Adobe PhotoShop CSS 12.1. The length of the longest neurite for ˜15 neurons average per condition was measured for each experiment with ImageJ with Simple Neurite Tracer plugin. Other neuronal images were acquired using a Zeiss 880 confocal microscope.

[1] = biological target: PKA (protein kinase A, in Cos-7 cells); test: cell-based or functional assay

Molecule | effect on neurite extension (pharmacological induction) (hippocampal neurons) | also measured
COc1ccc(C2CNC(=O)C2)cc1OC1CCCC1 (centres unmarked) [rolipram] | induced neurite extension | 
mAKAPα WT (N-terminally myc-tagged rat mAKAPα) (from UniProt Q9WVC7 1-2314) |  | amplitude of PN-AKAR4 FRET transient after FSK pulse in Cos-7 cells [1]: 50%
Cc1[nH]c(=O)c(C#N)cc1-c1ccncc1 [milrinone] | no effect on neurite growth | 
[Cl-].[K+] [KCl] | induced neurite extension | increase in axon extension due to KCl depolarization alone (hippocampal neurons; GFP-expressing hippocampal neurons): 29%; increase in axon extension due to KCl depolarization alone (hippocampal neurons; mCherry-nesprin-expressing hippocampal neurons): 37%
CC(C)Cn1c(=O)n(C)c(=O)c2[nH]cnc21 [IBMX, 3-isobutyl-1-methylxanthine] | induced neurite extension | 
B1 |  | effect on axon outgrowth (longest neurite length) (hippocampal neurons; hippocampal neurons in defined media and with chronic KCl depolarization, vs GFP control): inhibited axon outgrowth
